The numbers were not newly measured in US8278066B2, “Truncated somatostatin receptors” (Board of Regents, The University of Texas System, priority 2001, dated 2012), which cites them from elsewhere.

This series has as its target SSTR2 (Homo sapiens, UniProt P30874). The settings on record: reported by Reisine et al. 1993; Raynor et al. 1993; cited from earlier work.

Chain of SSTR2 (P30874 whole entry, species assumed): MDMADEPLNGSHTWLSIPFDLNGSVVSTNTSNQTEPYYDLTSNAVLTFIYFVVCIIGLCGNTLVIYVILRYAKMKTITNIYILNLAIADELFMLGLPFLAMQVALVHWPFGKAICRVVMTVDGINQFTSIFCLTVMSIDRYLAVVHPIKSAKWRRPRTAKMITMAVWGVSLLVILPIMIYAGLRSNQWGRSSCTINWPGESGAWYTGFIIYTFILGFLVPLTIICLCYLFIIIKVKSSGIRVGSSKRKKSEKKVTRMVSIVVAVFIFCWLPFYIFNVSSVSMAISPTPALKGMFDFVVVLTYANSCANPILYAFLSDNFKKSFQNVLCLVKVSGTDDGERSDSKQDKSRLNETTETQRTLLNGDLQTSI

With `C[C@@H](O)[C@@H]1NC(=O)[C@H](CCCCN)NC(=O)[C@@H](Cc2c[nH]c3ccccc23)NC(=O)[C@H](Cc2ccccc2)NC(=O)[C@@H](NC(=O)[C@H](N)Cc2ccccc2)CSSC[C@@H](C(=O)N[C@H](CO)[C@@H](C)O)NC1=O` [octreotide], the Receptor saturation is 100 nM.
